Test results taken from patent publication US20230348447A1, “OXAZOLIDINONE COMPOUNDS, LIPOSOME COMPOSITIONS COMPRISING OXAZOLIDINONE COMPOUNDS AND METHOD OF USE THEREOF” (priority 2020, published 2023).
≈ marks a conversion by molar mass, not a printed value. Read-outs that look alike come from different tables or passages of the source.

How the values were obtained:
M.tb H37Rv = assay: Broth microdilution MIC with Alamar blue endpoint (MABA) / OD600; type: cell-based, Mycobacterium tuberculosis; conditions: Mycobacterium tuberculosis, H37RV
M.tb Erdman = assay: as above; type: cell-based, Mycobacterium tuberculosis; conditions: Mycobacterium tuberculosis
[1] = from drugbank.ca; cited from earlier work
M. chelonae = assay: MIC in nontuberculosis mycobacteria (microbroth dilution, resazurin); type: cell-based, Mycobacterium chelonae; conditions: Mycobacteroides chelonae
M. abscessus = assay: as above; type: cell-based, Mycobacterium abscessus; conditions: Mycobacteroides abscessus, read-out: MIC
MRSA ATCC 43300 = assay: MIC against methicillin resistant Staphylococcus aureus (MRSA); conditions: read-out: MRSA MIC, ATCC 43300
[2] = tested on: mitochondrial protein synthesis (COX-1/SDH-A ratio) in H9C2 rat heart myoblast cells; assay: Mitochondrial protein synthesis inhibition (MitoBiogenesis in-cell ELISA, COX-1/SDH-A); type: cell-based; conditions: 120 h, five days, read-out: MPS IC50
[3] = Aqueous solubility (visually clear solutions); type: physicochemical
Procedure: Working stocks of the compounds were prepared as follows: to an aliquot of a compound (free base) in a powder form 1-1.5 equivalents of HCl in the form of 1 N aqueous solution was added, and the mixture was vortexed until homogeneity. To the resulting cake or syrup, water was added typically to the final 10 mg/ml, and complete dissolution was observed. In some instances, 0.95 equivalents of HCl were added to the free base form of the drug, and 20 mg/ml stock solution was prepared.
Aqueous solubility of the compounds of the present disclosure is illustrated by the following observations of obtaining visually clear solutions: […]

M.avium = assay: MIC in nontuberculosis mycobacteria (microbroth dilution, resazurin); type: cell-based, Mycobacterium avium; conditions: Mycobacterium avium, read-out: MIC
MRSA ATCC BAA-1556 [4] = conditions: cited from earlier work
MRSA 880 NR-49120 = assay: MIC against methicillin resistant Staphylococcus aureus (MRSA); conditions: read-out: MRSA MIC, 880 NR-49120
M. massiliense = assay: MIC in nontuberculosis mycobacteria (microbroth dilution, resazurin); type: cell-based, Mycobacterium massiliense
M. kansasii = assay: as above; type: cell-based; conditions: Mycobacterium kansasii
MRSA ATCC BAA-1556 [5] = assay: MIC against methicillin resistant Staphylococcus aureus (MRSA)
[6] = read-out: Mycobacterium tuberculosis MIC, H37Rv
[7] = ERDMAN, read-out: Mycobacterium tuberculosis MIC, Erdman

SMILES: CC(=O)NC[C@H]1CN(c2ccc(N3CCSCC3)c(F)c2)C(=O)O1 [Sutezolid, reference compound]
- MIC (M.tb H37Rv; [6]): 0.5 µg/mL (≈ 1.41 µM)
- MIC (M.tb Erdman; [7]): 0.5 µg/mL (≈ 1.41 µM)
- known aqueous solubility [1]: 237 µg/mL

SMILES: Cn1nnc(-c2ccc(-c3ccc(N4C[C@H](CO)OC4=O)cc3F)cn2)n1 [Tedizolid, reference compound]
- MIC (M. chelonae; M. chelonae strain 49, read-out: MIC): 0.25 µg/mL (≈ 0.675 µM)
- MIC (M. chelonae; M. chelonae strain 69, read-out: MIC): 2 µg/mL (≈ 5.4 µM)
- MIC (M. chelonae; M. chelonae strain 35752): 0.125 µg/mL (≈ 0.338 µM)
- MIC (M. abscessus; M. abscessus sbsp. abscessus strain 21): 0.5 µg/mL (≈ 1.35 µM)
- MIC (M. abscessus; M. abscessus sbsp. abscessus strain 1513): 4 µg/mL (≈ 10.8 µM)
- MIC (M. abscessus; M. abscessus sbsp. abscessus strain 1948): 0.5 µg/mL (≈ 1.35 µM)
- MIC (MRSA ATCC 43300): 0.617 µg/mL (≈ 1.67 µM)
- MIC (M.tb H37Rv; as determined in Example 2, read-out: MIC (H37Rv)): 0.25 µg/mL (≈ 0.675 µM)
- MIC (M.tb H37Rv; [6]): 0.25 µg/mL (≈ 0.675 µM)
- IC50 [2]: 0.143 µg/mL (≈ 0.386 µM)
- solubility in water for gradient-assisted liposome loading [3]: not soluble enough in water
- MIC (M.avium; M. avium sbsp. avium strain 2285 R): 0.25 µg/mL (≈ 0.675 µM)
- MIC (M.avium; M. avium sbsp. avium strain 2285 S): 0.25 µg/mL (≈ 0.675 µM)
- MIC (M.avium; M. avium sbsp. avium strain 3993): 0.25 µg/mL (≈ 0.675 µM)
- MRSA MIC described in U.S. Pat. No. 7,816,379 (MRSA ATCC BAA-1556 [4]): 0.5 µg/mL
- MIC (MRSA 880 NR-49120): 0.206 µg/mL (≈ 0.556 µM)
- MIC (M. massiliense; M. massiliense strain M154): 0.06 µg/mL (≈ 0.162 µM)
- activity relative to AKG-28 and AKG-38 (M. massiliense; M. massiliense, three strains): more active in all three strains evaluated
- MIC (M. massiliense; Mycobacteroides abscessus, CIP108297, M. massiliense strain CIP 108297, read-out: MIC): 0.25 µg/mL (≈ 0.675 µM)
- MIC (M. massiliense; Mycobacteroides abscessus, M. massiliense strain CRM0019, read-out: MIC): 0.06 µg/mL (≈ 0.162 µM)
- MIC (M. kansasii): 0.125 µg/mL (≈ 0.338 µM)
- MIC (M. kansasii; M. kansasii strain 662, read-out: MIC): > 32 µg/mL
- MIC (M. kansasii; M. kansasii strain 732, read-out: MIC): 0.25 µg/mL (≈ 0.675 µM)
- MIC (M. kansasii; M. kansasii strain 824, read-out: MIC): 0.25 µg/mL (≈ 0.675 µM)
- MIC (M. kansasii; M. kansasii strain MK13D6, read-out: MIC): 0.25 µg/mL (≈ 0.675 µM)
- MIC (M.tb Erdman; [7]): 0.25 µg/mL (≈ 0.675 µM)
- MIC (M.tb Erdman; M. tuberculosis Erdman / H37Rv, strains not separated, read-out: MIC): 0.25 µg/mL (≈ 0.675 µM)
- MIC (MRSA ATCC BAA-1556 [5]; read-out: MRSA MIC): 0.206 to 0.617 µg/mL (≈ 0.556 to 1.67 µM)
- MIC (MRSA ATCC BAA-1556 [5]; read-out: MRSA MIC, ATCC BAA-1556): 0.617 µg/mL (≈ 1.67 µM)
